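Growth conditions: 96-well plates. Treatment: test compound, 48 hours, 5 concentrations. Analysis: linear interpolation between bracketing concentrations; unreached endpoints set to highest concentration. The concentration for 50% growth inhibition is given as GI50.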 Calls of active or inactive are those of the source. No stated cut-off is given here; in the data, active = GI50 up to about 1.1 µM and inactive = higher.
Key:
Assay in all cases: NCI-60 cell line screen, 48 h
786-0 = tested on: 786-0
COLO 205 = tested on: COLO 205
NCI-H460 = tested on: NCI-H460
SNB-75 = tested on: SNB-75
NCI-H522 = tested on: NCI-H522
UACC-257 = tested on: UACC-257
A549 = tested on: A549
UO-31 = tested on: UO-31
MOLT-4 = tested on: MOLT-4
OVCAR-5 = tested on: OVCAR-5
HT-29 = tested on: HT-29
NCI-H23 = tested on: NCI-H23
SK-OV-3 = tested on: SK-OV-3
HCT-116 = tested on: HCT-116
EKVX = tested on: EKVX
MCF7 = tested on: MCF7
BT-549 = tested on: BT-549
MDA-MB-435 = tested on: MDA-MB-435
NCI-H226 = tested on: NCI-H226
HCT-15 = tested on: HCT-15

SMILES	GI50 (786-0)	GI50 (COLO 205)	GI50 (NCI-H460)	GI50 (SNB-75)	GI50 (NCI-H522)	GI50 (UACC-257)	GI50 (A549)	GI50 (UO-31)	GI50 (MOLT-4)	GI50 (OVCAR-5)	GI50 (HT-29)	GI50 (NCI-H23)	GI50 (SK-OV-3)	GI50 (HCT-116)	GI50 (EKVX)	GI50 (MCF7)	GI50 (BT-549)	GI50 (MDA-MB-435)	GI50 (NCI-H226)	GI50 (HCT-15) [µM]
CC1=CC(C/C(C)=C/COc2ccc3ccc(=O)oc3c2)OC1=O (stereo not drawn)	> 100 µM (inactive)	> 100 µM (inactive)	> 100 µM (inactive)	> 100 µM (inactive)	> 100 µM (inactive)	47.4 µM (inactive)	> 100 µM (inactive)	> 100 µM (inactive)	49.8 µM (inactive)	> 100 µM (inactive)	> 100 µM (inactive)	50.7 µM (inactive)	> 100 µM (inactive)	92.7 µM (inactive)	> 100 µM (inactive)	> 100 µM (inactive)	76.2 µM (inactive)	54.5 µM (inactive)	> 100 µM (inactive)	95.9
CCCc1c(O)nc2ccccc2c1O	> 100 µM (inactive)	> 100 µM (inactive)	> 100 µM (inactive)	> 100 µM (inactive)	> 100 µM (inactive)	> 100 µM (inactive)	> 100 µM (inactive)	> 100 µM (inactive)	> 100 µM (inactive)	> 100 µM (inactive)	> 100 µM (inactive)	> 100 µM (inactive)	–	> 100 µM (inactive)	> 100 µM (inactive)	> 100 µM (inactive)	> 100 µM (inactive)	> 100 µM (inactive)	> 100 µM (inactive)	> 100
NC(C(=O)OC(=O)c1ccccc1)C(=O)OC(=O)c1ccccc1	> 100 µM (inactive)	> 100 µM (inactive)	> 100 µM (inactive)	> 100 µM (inactive)	> 100 µM (inactive)	> 100 µM (inactive)	> 100 µM (inactive)	> 100 µM (inactive)	> 100 µM (inactive)	> 100 µM (inactive)	> 100 µM (inactive)	> 100 µM (inactive)	–	> 100 µM (inactive)	> 100 µM (inactive)	> 100 µM (inactive)	> 100 µM (inactive)	> 100 µM (inactive)	> 100 µM (inactive)	> 100
Cn1c(=O)cc(N2CCCC2)[nH]c1=O	> 100 µM (inactive)	> 100 µM (inactive)	> 100 µM (inactive)	> 100 µM (inactive)	> 100 µM (inactive)	> 100 µM (inactive)	> 100 µM (inactive)	–	> 100 µM (inactive)	> 100 µM (inactive)	> 100 µM (inactive)	> 100 µM (inactive)	–	> 100 µM (inactive)	> 100 µM (inactive)	> 100 µM (inactive)	> 100 µM (inactive)	> 100 µM (inactive)	> 100 µM (inactive)	> 100
CC[C@@H]1CC[C@@H]2[C@H](CC[C@]3(C)[C@@H](OS(=O)(=O)c4ccc(C)cc4)CC[C@@H]23)[C@H]1CO	> 100 µM (inactive)	12.4 µM (inactive)	> 100 µM (inactive)	91 µM (inactive)	> 100 µM (inactive)	80.2 µM (inactive)	> 100 µM (inactive)	21.3 µM (inactive)	> 100 µM (inactive)	> 100 µM (inactive)	27.3 µM (inactive)	> 100 µM (inactive)	–	> 100 µM (inactive)	12.2 µM (inactive)	43.3 µM (inactive)	> 100 µM (inactive)	> 100 µM (inactive)	> 100 µM (inactive)	82.4
COC(=O)c1ccc(/C=C2\Oc3cc(O)ccc3C2=O)cc1	> 100 µM (inactive)	> 100 µM (inactive)	> 100 µM (inactive)	39.4 µM (inactive)	20 µM (inactive)	> 100 µM (inactive)	77.3 µM (inactive)	46.3 µM (inactive)	43.7 µM (inactive)	–	–	42.3 µM (inactive)	> 100 µM (inactive)	63.5 µM (inactive)	49.2 µM (inactive)	38.5 µM (inactive)	39.8 µM (inactive)	> 100 µM (inactive)	55.3 µM (inactive)	53.3
O=c1[nH]nc(Nc2ccc(Cl)cc2)c2nnn(-c3ccc([N+](=O)[O-])cc3)c12	17.1 µM (inactive)	13.3 µM (inactive)	30.6 µM (inactive)	39.8 µM (inactive)	4.47 µM (inactive)	34.8 µM (inactive)	14.5 µM (inactive)	–	8.63 µM (inactive)	> 100 µM (inactive)	25.4 µM (inactive)	8.59 µM (inactive)	–	13.9 µM (inactive)	30.6 µM (inactive)	16.6 µM (inactive)	19.2 µM (inactive)	30.1 µM (inactive)	42.1 µM (inactive)	14.4
COC(=O)C1(Cc2ccc3c(c2)CCC3)Cc2ccc3c(c2C1)CCC3 (stereo not drawn)	24.5 µM (inactive)	19 µM (inactive)	24.8 µM (inactive)	> 100 µM (inactive)	18.4 µM (inactive)	5.61 µM (inactive)	27.4 µM (inactive)	18.7 µM (inactive)	43.3 µM (inactive)	–	14.9 µM (inactive)	1.48 µM (inactive)	52.8 µM (inactive)	18.1 µM (inactive)	31.3 µM (inactive)	13.2 µM (inactive)	21.6 µM (inactive)	12.7 µM (inactive)	21.1 µM (inactive)	25
COc1ccccc1N1C(=O)/C(=C\c2cccc(Oc3ccccc3)c2)SC1c1ccccc1 (stereo not drawn)	39.2 µM (inactive)	15.3 µM (inactive)	49 µM (inactive)	39.6 µM (inactive)	24.1 µM (inactive)	31.3 µM (inactive)	34.3 µM (inactive)	51.3 µM (inactive)	31 µM (inactive)	> 100 µM (inactive)	32.4 µM (inactive)	18.3 µM (inactive)	47.4 µM (inactive)	16.5 µM (inactive)	15.9 µM (inactive)	21.5 µM (inactive)	29.8 µM (inactive)	28.6 µM (inactive)	–	47.2
COc1cccc2c1OC1c3ccccc3OCC1C2 (stereo not drawn)	> 100 µM (inactive)	> 100 µM (inactive)	–	< 0.01 µM (active)	> 10 µM (inactive)	83.6 µM (inactive)	> 100 µM (inactive)	48 µM (inactive)	96.2 µM (inactive)	> 100 µM (inactive)	> 100 µM (inactive)	> 100 µM (inactive)	> 100 µM (inactive)	74.6 µM (inactive)	44.2 µM (inactive)	> 100 µM (inactive)	62.2 µM (inactive)	> 100 µM (inactive)	> 100 µM (inactive)	> 100
Clc1cc(Cl)cc(/C=N/C23CC4CC(CC(C4)C2)C3)c1	> 10 µM (inactive)	> 10 µM (inactive)	> 10 µM (inactive)	> 10 µM (inactive)	> 10 µM (inactive)	> 10 µM (inactive)	> 10 µM (inactive)	–	> 10 µM (inactive)	> 10 µM (inactive)	> 10 µM (inactive)	> 10 µM (inactive)	> 10 µM (inactive)	> 10 µM (inactive)	> 10 µM (inactive)	7.59 µM (inactive)	> 10 µM (inactive)	> 10 µM (inactive)	> 10 µM (inactive)	> 10
O=C(O)CC(Sc1ccccc1)c1ccccc1 (stereo not drawn)	> 100 µM (inactive)	> 100 µM (inactive)	–	> 100 µM (inactive)	> 100 µM (inactive)	–	> 100 µM (inactive)	> 100 µM (inactive)	> 100 µM (inactive)	> 100 µM (inactive)	> 100 µM (inactive)	> 100 µM (inactive)	> 100 µM (inactive)	> 100 µM (inactive)	> 100 µM (inactive)	> 100 µM (inactive)	> 100 µM (inactive)	> 100 µM (inactive)	> 100 µM (inactive)	> 100
CSC(=S)CC(O)[C@@H]1CC2c3ccccc3C1c1ccccc12 (stereo partly drawn)	18 µM (inactive)	18.1 µM (inactive)	14.6 µM (inactive)	> 10 µM (inactive)	2.82 µM (inactive)	–	17.1 µM (inactive)	11.7 µM (inactive)	1.49 µM (inactive)	16.7 µM (inactive)	4.33 µM (inactive)	7.11 µM (inactive)	15.3 µM (inactive)	8.11 µM (inactive)	–	13.9 µM (inactive)	13.2 µM (inactive)	11.3 µM (inactive)	9.06 µM (inactive)	9.73
CCOc1ccccc1NC(=O)C(=O)C(/C(=N/N)C(=O)OC)c1nc2ccc([N+](=O)[O-])cc2nc1O (stereo not drawn)	> 100 µM (inactive)	–	> 100 µM (inactive)	71.4 µM (inactive)	58.3 µM (inactive)	> 100 µM (inactive)	> 100 µM (inactive)	–	59.8 µM (inactive)	> 100 µM (inactive)	> 100 µM (inactive)	–	> 100 µM (inactive)	> 100 µM (inactive)	97.5 µM (inactive)	> 100 µM (inactive)	> 100 µM (inactive)	> 100 µM (inactive)	> 100 µM (inactive)	> 100
CC(C)CC1c2[nH]c3ccccc3c2C[C@H]2C(=O)NC(COC(C)(C)C)C(=O)N12 (stereo partly drawn)	32.8 µM (inactive)	20.4 µM (inactive)	–	–	16.4 µM (inactive)	19 µM (inactive)	31.9 µM (inactive)	32.1 µM (inactive)	22.2 µM (inactive)	23.6 µM (inactive)	20.9 µM (inactive)	28.7 µM (inactive)	> 100 µM (inactive)	18.6 µM (inactive)	24.9 µM (inactive)	31.6 µM (inactive)	23.6 µM (inactive)	20.5 µM (inactive)	33.2 µM (inactive)	26.9

— ChEMBL document CHEMBL1201862, “PubChem BioAssay data set” (2004)
